Data set [1] relates to dermatitis. The experiment in a line: Topical treatment of dermatitis in a human, composition of Example 32. Type of data set: in vivo. To be noted: 5 mg/cm^2 of skin three times daily for five days; noted after 48 hours. The procedure:
The above composition is applied at the afflicted situs of a human afflicted with dermatitis at a rate of 5 mg of composition/cm^2 of skin three times daily for a period of five days.

The nature of data set [2]: Percutaneous penetration study, Franz diffusion apparatus, human skin (*). To be noted: Example 8; for reduction of penetration on addition of the proscribed compound, in words: compared with octanoic acid (reduces penetration by 50%). The format is in vitro ADME.
Description: The following Penetration Studies were carried out in the following manner. […] A normal saline solution is added to the lower diffusion cell, abutting the subcutaneous side of the skin. The test composition (comprising a solution of active or actives added to the carrier at the indicated formulation in a conventional manner by thoroughly mixing) is added to the diffusion cell abutting the epidermal side of the skin at the levels indicated.
This cell assembly is kept at a constant temperature of about 31° C. At appropriate or desired intervals (these are the time designations given in the following examples) each diffusion cell assembly is opened and the diffusate from the cell abutting the subcutaneous side of the skin is withdrawn. Drug actives in a diffusate is measured using standard analytical techniques. Each trial is run on a separate sample of skin.
All ratios represented by A/B, or A/B/C, and all percentages, are by weight. The compounds described as C12-18 OH are the straight chain, saturated, normal alcohols. EtOH is ethanol. The term mcg=microgram.
The conditions of data set [3]: compared with hydrocortisone; cited from earlier work.

On to `CC1(C)O[C@@H]2C[C@H]3[C@@H]4C[C@H](F)C5=CC(=O)C=C[C@]5(C)[C@@]4(F)[C@@H](O)C[C@]3(C)[C@]2(C(=O)CO)O1` [fluocinolone, acetonide, Fluocinolone acetonide], for which, in data set [1], the reduction of inflammation entry is recorded as “Substantially similar results”. Consider `COc1c(C(=O)OCC(=O)[C@@]23OC(C)(C)O[C@@H]2C[C@H]2[C@@H]4CCC5=CC(=O)C=C[C@]5(C)[C@@]4(F)[C@@H](O)C[C@@]23C)cc2ccccc2c1Cc1c(OC)c(C(=O)OCC(=O)[C@@]23OC(C)(C)O[C@@H]2C[C@H]2[C@@H]4CCC5=CC(=O)C=C[C@]5(C)[C@@]4(F)[C@@H](O)C[C@@]23C)cc2ccccc12` [flupamesone], for which, in data set [1], the reduction of inflammation entry was “Substantially similar results”. Same read-out and setting: for `CC1(C)O[C@@H]2C[C@H]3[C@@H]4CCC5=CC(=O)C=C[C@]5(C)[C@@]4(F)[C@@H](O)C[C@]3(C)[C@]2(C(=O)CO)O1` [triamcinolone, Triamcinolone acetonide] the value was “Substantially similar results”.

Turning to `CCCCCCCCCC(=O)O` [decanoic acid], the “reduction of penetration on addition of the proscribed compound, in words” value (from here on “reduction of penetration on addition … in words”) in data set [2] was “Substantially similar results”. For `CCCCCCCCCCCCCCCCCCO` [stearyl alcohol], the “reduction of penetration on addition … in words” value in data set [2] is given as “Substantially similar results”. On to `CCCCC(=O)O[C@]1(C(=O)CO)[C@@H](C)C[C@H]2[C@@H]3CCC4=CC(=O)C=C[C@]4(C)[C@@]3(F)[C@@H](O)C[C@@]21C` [betamethasone valerate], for which the reduction of inflammation result in data set [1] is recorded as “Substantially similar results”. Turning to `CCCCCCCCCCCCCCCCO` [cetyl alcohol], in data set [2], the “reduction of penetration on addition … in words” value is listed as “Substantially similar results”. `C[C@]12C=CC(=O)C=C1CC[C@@H]1[C@@H]2[C@@H](O)C[C@@]2(C)[C@H]1CC[C@]2(O)C(=O)CO` [prednisolone]: the “change of mineralocorticoid effects by introduction of a double bond at the 1,2 position into hydrocortisone” value in data set [3] is given as “reducing mineralo corticoid effects”.

As to `CCCCCCCC(=O)O` [octanoic acid], in data set [2] (1% Triamcinolone in Propylene Glycol + 2% C14 OH, human skin, 0-72 hrs.), the “reduction of penetration on addition of the proscribed compound” value amounted to 50%.

Values taken from patent US4552872A, “Penetrating topical pharmaceutical compositions containing corticosteroids” (priority 1984, dated 1985).
